Consider one cell line from the supplement of paper PMC10307832.

Common to all, as to assay: relative viability (nuclei count vs DMSO), 5 days (fraction); higher = more cells survive
Compound in the test “Irinotecan + OSI-027”: CCc1c2c(nc3ccc(OC(=O)N4CCC(N5CCCCC5)CC4)cc13)-c1cc3c(c(=O)n1C2)COC(=O)[C@]3(O)CC [Irinotecan] + COc1cccc2cc(-c3nc([C@H]4CC[C@H](C(=O)O)CC4)n4ncnc(N)c34)[nH]c12 [OSI-027] (partner 0.5 µM)
The procedure, abridged:
(§1)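 After 5 days of treatment, lung cancer cells in 1536-well plates were fixed and stained in a single step (final 0.05% Triton X-100, 1% formaldehyde, 1 ug/ml Hoechst) and their nuclei counted on 4× images. Treatment had been applied by pin tool the day after seeding as one drug alone or as a fixed anchor-drug dose with five library-drug doses (not always all listed) in √10 steps. Relative viability is the nuclei count of treated wells divided by that of vehicle wells, and values are medians of duplicate plates.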

Compound in the test “RU-SKI 43 + Crizotinib”: CC[C@@H](C)CNCC(=O)N1CCC2=C([C@@H]1COC3=CC=CC(=C3)C)C=CS2 [RU-SKI 43] + C[C@@H](Oc1cc(-c2cnn(C3CCNCC3)c2)cnc1N)c1c(Cl)ccc(F)c1Cl [Crizotinib] (partner 1 µM)
Put shortly:
as §1

Compound in the test “RU-SKI 43 + Palbociclib”: CC[C@@H](C)CNCC(=O)N1CCC2=C([C@@H]1COC3=CC=CC(=C3)C)C=CS2 [RU-SKI 43] + CC(=O)c1c(C)c2cnc(Nc3ccc(N4CCNCC4)cn3)nc2n(C2CCCC2)c1=O [Palbociclib] (partner 0.5 µM)
Put shortly:
as §1

Compound in the test “RU-SKI 43 + Olaparib”: CC[C@@H](C)CNCC(=O)N1CCC2=C([C@@H]1COC3=CC=CC(=C3)C)C=CS2 [RU-SKI 43] + O=C(c1cc(Cc2n[nH]c(=O)c3ccccc23)ccc1F)N1CCN(C(=O)C2CC2)CC1 [Olaparib] (partner 8 µM)
The procedure, abridged: as §1

With UMC-11, the relative viability stood at 0.461 in the test with Irinotecan + OSI-027 (first compound 0.6325 µM); 0.475 with Irinotecan + OSI-027 (first compound 2 µM); 0.279 with Irinotecan + OSI-027 (first compound 6.325 µM); 0.155 with Irinotecan + OSI-027 (first compound 20 µM); 0.763 with RU-SKI 43 + Crizotinib (first compound 0.1 µM); 0.707 in the test with RU-SKI 43 + Crizotinib (first compound 0.3162 µM). For the same cell line, the relative viability with RU-SKI 43 + Crizotinib (first compound 1 µM) amounted to 0.664; with RU-SKI 43 + Crizotinib (first compound 3.162 µM) it was 0.654; with RU-SKI 43 + Crizotinib (first compound 10 µM), 0.399; in the test with RU-SKI 43 + Palbociclib (first compound 0.1 µM), 0.317; in the test with RU-SKI 43 + Palbociclib (first compound 0.3162 µM), 0.31; with RU-SKI 43 + Palbociclib (first compound 1 µM), 0.351. Besides, the relative viability with RU-SKI 43 + Palbociclib (first compound 3.162 µM) was 0.314; with RU-SKI 43 + Palbociclib (first compound 10 µM), 0.323; with RU-SKI 43 + Olaparib (first compound 0.1 µM) it was 0.397; in the test with RU-SKI 43 + Olaparib (first compound 0.3162 µM), 0.418; with RU-SKI 43 + Olaparib (first compound 1 µM) it was 0.399; with RU-SKI 43 + Olaparib (first compound 3.162 µM) it was 0.383. For the same cell line, the relative viability in the test with RU-SKI 43 + Olaparib (first compound 10 µM) came to 0.273.
